Experimental data published in ChEMBL document CHEMBL3414499, “Characterization of two distinct structural classes of selective aldehyde dehydrogenase 1A1 inhibitors” (J Med Chem, 2015).
Activity calls are given as the source filed them. The rule behind the calls is not given here.

Legend:
[1] = target: T1, Aldehyde dehydrogenase 1A1 (Homo sapiens) (UniProt P00352); assay: Inhibition of recombinant human ALDH1A1 using propionaldehyde as substrate at 100 uM preincubated for 2 mins with NAD+ followed by substrate addition by UV-Vis spectrophotometric analysis relative to control
T1 sequence (whole entry): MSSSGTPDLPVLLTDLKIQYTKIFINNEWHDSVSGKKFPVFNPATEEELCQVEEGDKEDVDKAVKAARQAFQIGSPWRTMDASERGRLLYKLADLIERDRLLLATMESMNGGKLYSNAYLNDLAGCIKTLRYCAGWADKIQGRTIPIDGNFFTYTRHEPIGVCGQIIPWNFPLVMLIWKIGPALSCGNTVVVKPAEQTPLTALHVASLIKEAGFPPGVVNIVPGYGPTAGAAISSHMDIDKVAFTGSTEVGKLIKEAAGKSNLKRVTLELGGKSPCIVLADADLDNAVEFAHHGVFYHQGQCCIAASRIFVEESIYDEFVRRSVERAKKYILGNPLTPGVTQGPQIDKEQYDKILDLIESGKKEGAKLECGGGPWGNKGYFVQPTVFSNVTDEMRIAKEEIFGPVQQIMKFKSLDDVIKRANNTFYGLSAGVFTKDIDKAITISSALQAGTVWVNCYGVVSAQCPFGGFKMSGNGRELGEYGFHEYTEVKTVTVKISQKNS

[2] = target: T2, Aldehyde dehydrogenase X, mitochondrial (Homo sapiens) (UniProt P30837); assay: Inhibition of recombinant human ALDH1B1 using propionaldehyde as substrate at 100 uM preincubated for 2 mins with NAD+ followed by substrate addition by UV-Vis spectrophotometric analysis
T2 sequence (whole entry): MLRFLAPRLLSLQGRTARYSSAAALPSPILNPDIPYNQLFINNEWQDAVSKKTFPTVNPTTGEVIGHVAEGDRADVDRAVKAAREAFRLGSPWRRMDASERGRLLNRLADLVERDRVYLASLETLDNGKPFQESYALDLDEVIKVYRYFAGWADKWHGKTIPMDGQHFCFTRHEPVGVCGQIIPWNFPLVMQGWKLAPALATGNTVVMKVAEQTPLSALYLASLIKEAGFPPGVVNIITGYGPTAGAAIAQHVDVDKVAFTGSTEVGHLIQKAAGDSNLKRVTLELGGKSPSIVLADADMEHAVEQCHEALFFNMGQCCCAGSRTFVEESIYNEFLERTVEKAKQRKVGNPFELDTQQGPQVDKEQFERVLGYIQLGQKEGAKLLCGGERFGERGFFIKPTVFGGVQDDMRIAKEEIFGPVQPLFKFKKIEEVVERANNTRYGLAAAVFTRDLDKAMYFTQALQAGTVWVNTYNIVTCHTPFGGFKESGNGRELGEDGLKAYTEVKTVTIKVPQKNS

[3] = target: T3, Retinaldehyde dehydrogenase 3 (Homo sapiens) (UniProt P47895); assay: Inhibition of recombinant human ALDH1A3 using propionaldehyde as substrate at 100 uM preincubated for 2 mins with NAD+ followed by substrate addition by UV-Vis spectrophotometric analysis
T3 sequence (whole entry): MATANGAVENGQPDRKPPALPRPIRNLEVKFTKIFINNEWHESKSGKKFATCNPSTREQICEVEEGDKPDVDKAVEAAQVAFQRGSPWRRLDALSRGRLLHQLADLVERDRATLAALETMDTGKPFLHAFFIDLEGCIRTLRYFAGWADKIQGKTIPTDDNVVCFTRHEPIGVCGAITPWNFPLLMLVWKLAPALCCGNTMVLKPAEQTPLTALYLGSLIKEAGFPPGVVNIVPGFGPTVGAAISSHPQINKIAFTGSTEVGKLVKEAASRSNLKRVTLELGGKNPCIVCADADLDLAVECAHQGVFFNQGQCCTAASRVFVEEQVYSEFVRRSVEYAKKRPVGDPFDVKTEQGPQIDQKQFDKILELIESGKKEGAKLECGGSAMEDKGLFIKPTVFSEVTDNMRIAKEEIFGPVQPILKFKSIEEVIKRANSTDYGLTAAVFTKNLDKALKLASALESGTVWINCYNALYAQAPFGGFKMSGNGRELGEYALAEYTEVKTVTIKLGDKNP

[4] = target: T4, Aldehyde dehydrogenase, mitochondrial (Homo sapiens) (UniProt P05091); assay: Inhibition of recombinant human ALDH2 using propionaldehyde as substrate at 100 uM preincubated for 2 mins with NAD+ followed by substrate addition by UV-Vis spectrophotometric analysis
T4 sequence (whole entry): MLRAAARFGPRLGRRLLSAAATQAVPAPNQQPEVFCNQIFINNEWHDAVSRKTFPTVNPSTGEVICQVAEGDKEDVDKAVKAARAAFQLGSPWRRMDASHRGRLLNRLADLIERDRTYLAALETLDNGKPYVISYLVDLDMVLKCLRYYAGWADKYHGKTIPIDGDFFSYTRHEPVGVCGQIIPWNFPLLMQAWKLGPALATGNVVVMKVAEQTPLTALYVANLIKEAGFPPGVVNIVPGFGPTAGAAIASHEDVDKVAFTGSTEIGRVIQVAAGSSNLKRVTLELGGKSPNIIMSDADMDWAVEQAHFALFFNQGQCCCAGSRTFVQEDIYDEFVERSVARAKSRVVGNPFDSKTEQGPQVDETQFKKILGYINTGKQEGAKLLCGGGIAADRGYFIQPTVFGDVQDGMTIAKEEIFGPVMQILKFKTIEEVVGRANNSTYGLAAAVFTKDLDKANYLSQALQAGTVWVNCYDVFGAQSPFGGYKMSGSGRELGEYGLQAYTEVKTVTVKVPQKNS

[5] = target: T5, Aldehyde dehydrogenase, dimeric NADP-preferring (Homo sapiens) (UniProt P30838); assay: Inhibition of recombinant human ALDH3A1 using benzaldehyde as substrate at 100 uM preincubated for 2 mins with NAD+ followed by substrate addition by UV-Vis spectrophotometric analysis
T5 sequence (whole entry): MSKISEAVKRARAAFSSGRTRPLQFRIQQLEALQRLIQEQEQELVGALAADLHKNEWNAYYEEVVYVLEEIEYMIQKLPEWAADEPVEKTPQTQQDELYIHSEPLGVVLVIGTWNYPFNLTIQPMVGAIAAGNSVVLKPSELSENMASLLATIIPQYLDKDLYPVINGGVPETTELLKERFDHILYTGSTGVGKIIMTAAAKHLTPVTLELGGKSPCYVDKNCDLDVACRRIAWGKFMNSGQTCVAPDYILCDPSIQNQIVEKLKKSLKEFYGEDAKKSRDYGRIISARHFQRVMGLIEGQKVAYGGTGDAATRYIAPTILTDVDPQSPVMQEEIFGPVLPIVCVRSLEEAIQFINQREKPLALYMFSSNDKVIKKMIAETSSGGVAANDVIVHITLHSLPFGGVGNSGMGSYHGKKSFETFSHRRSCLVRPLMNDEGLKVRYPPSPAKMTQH

[6] = target: T6, Retinal dehydrogenase 2 (Homo sapiens) (UniProt O94788); assay: Inhibition of recombinant human ALDH1A2 using propionaldehyde as substrate at 100 uM preincubated for 2 mins with NAD+ followed by substrate addition by UV-Vis spectrophotometric analysis
T6 sequence (whole entry): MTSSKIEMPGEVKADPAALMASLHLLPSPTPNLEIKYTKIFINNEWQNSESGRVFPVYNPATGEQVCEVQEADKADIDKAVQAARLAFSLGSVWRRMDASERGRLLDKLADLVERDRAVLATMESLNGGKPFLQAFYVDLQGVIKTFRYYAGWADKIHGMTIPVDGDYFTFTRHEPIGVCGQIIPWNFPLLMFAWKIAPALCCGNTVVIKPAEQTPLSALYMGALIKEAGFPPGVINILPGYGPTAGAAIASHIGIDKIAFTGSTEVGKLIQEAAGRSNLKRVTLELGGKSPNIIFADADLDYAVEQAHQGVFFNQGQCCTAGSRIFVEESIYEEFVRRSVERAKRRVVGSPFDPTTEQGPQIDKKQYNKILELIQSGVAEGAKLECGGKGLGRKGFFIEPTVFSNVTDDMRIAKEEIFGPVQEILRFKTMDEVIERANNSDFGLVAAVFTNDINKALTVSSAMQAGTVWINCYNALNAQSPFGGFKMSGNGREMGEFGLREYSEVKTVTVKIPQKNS

[7] = target: T1, Aldehyde dehydrogenase 1A1 (Homo sapiens); assay: Effect on recombinant human ALDH1A1 using propionaldehyde as substrate up to 250 uM preincubated for 2 mins with NAD+ followed by substrate addition by UV-Vis spectrophotometric analysis
[8] = target: T5, Aldehyde dehydrogenase, dimeric NADP-preferring (Homo sapiens); assay: Activation of recombinant human ALDH3A1 using benzaldehyde as substrate at 20 uM preincubated for 2 mins with NAD+ followed by substrate addition by UV-Vis spectrophotometric analysis
[9] = target: T3, Retinaldehyde dehydrogenase 3 (Homo sapiens); assay: Activation of recombinant human ALDH1A3 using propionaldehyde as substrate at 20 uM preincubated for 2 mins with NAD+ followed by substrate addition by UV-Vis spectrophotometric analysis
[10] = target: T7, Retinaldehyde dehydrogenase 3 (Homo sapiens, UniProt P47895); assay: Inhibition of recombinant human ALDH1A3 using propionaldehyde as substrate preincubated for 2 mins with NAD+ followed by substrate addition by UV-Vis spectrophotometric analysis
T7 sequence (P47895 whole entry): T3 sequence (whole entry)

[11] = target: T4, Aldehyde dehydrogenase, mitochondrial (Homo sapiens); assay: Activation of recombinant human ALDH2 using propionaldehyde as substrate at 20 uM preincubated for 2 mins with NAD+ followed by substrate addition by UV-Vis spectrophotometric analysis
[12] = target: T8, Aldehyde dehydrogenase, mitochondrial (Homo sapiens, UniProt P05091); assay: Inhibition of recombinant human ALDH2 using propionaldehyde as substrate preincubated for 2 mins with NAD+ followed by substrate addition by UV-Vis spectrophotometric analysis
T8 sequence (P05091 whole entry): T4 sequence (whole entry)

[13] = target: T3, Retinaldehyde dehydrogenase 3 (Homo sapiens); assay: Activation of recombinant human ALDH1A3 using propionaldehyde as substrate at 100 uM preincubated for 2 mins with NAD+ followed by substrate addition by UV-Vis spectrophotometric analysis
[14] = target: T5, Aldehyde dehydrogenase, dimeric NADP-preferring (Homo sapiens); assay: Activation of recombinant human ALDH3A1 using benzaldehyde as substrate at 100 uM preincubated for 2 mins with NAD+ followed by substrate addition by UV-Vis spectrophotometric analysis
[15] = target: T6, Retinal dehydrogenase 2 (Homo sapiens); assay: Activation of recombinant human ALDH1A2 using propionaldehyde as substrate at 100 uM preincubated for 2 mins with NAD+ followed by substrate addition by UV-Vis spectrophotometric analysis
[16] = target: T6, Retinal dehydrogenase 2 (Homo sapiens); assay: Activation of recombinant human ALDH1A2 using propionaldehyde as substrate at 20 uM preincubated for 2 mins with NAD+ followed by substrate addition by UV-Vis spectrophotometric analysis

Row | Structure (SMILES) | inhibition [3] | inhibition [5] | Activity [8] [%] | Activity [9] [%] | Activity [13] | also measured
1 | Cn1c(=O)c2c(ncn2C)n(C)c1=O | inactive | inactive |  |  |  | inhibition [1]: inactive; inhibition [2]: inactive; inhibition [4]: inactive; inhibition [6]: inactive; Activity [7]: inactive
2 | CCN1CCN(Cc2nc3c(c(=O)n(C)c(=O)n3C)n2CCC(C)C)CC1 | inactive | inactive | < 10 | < 10 |  | 
3 | CC(C)CCn1c(CN2CCC(C)CC2)nc2c1c(=O)n(C)c(=O)n2C |  | inactive | < 10 | < 10 |  | IC50 [10]: > 100 µM; Activity [11]: < 10%; IC50 [12]: > 100 µM
4 | Cc1ccc(Cn2c(CN3CCN(c4ccccc4)CC3)nc3c2c(=O)n(C)c(=O)n3C)cc1 |  |  | < 10 | < 10 | Active | Activity [14]: Active
5 | Cc1cccc(Cn2c(CN3CCN(C(=O)c4ccco4)CC3)nc3c2c(=O)n(C)c(=O)n3C)c1 |  | inactive | < 10 | < 10 | Active | Activity [15]: Active; Activity [16]: < 10%
6 | Cn1c(=O)c2[nH]cnc2n(C)c1=O | inactive | inactive |  |  |  | inhibition [2]: inactive; inhibition [4]: inactive
7 | CCC1CCCCN1Cc1nc2c(c(=O)n(C)c(=O)n2C)n1Cc1cccc(C)c1 (centres undefined) |  | inactive | < 10 | < 10 | Active | 
8 | CC(C)CCn1c(CN2CCC(C(N)=O)CC2)nc2c1c(=O)n(C)c(=O)n2C |  |  | < 10 | < 10 | Active | Activity [14]: Active
